Tests used:
Assay type in all cases: cell-based, human
heavy OG cells [1] = assay: Chondrocyte markers in chondrogenic pellet differentiated in IGF2 inhibitor-treated medium; settings: 2 mM chromeceptin, treatment after aggregation compared with before aggregation
Protocol: First, among the OG cells obtained in the step iii) of [Example 12], the heavy cells were cultured for 3 days while treating the medium with chromeceptin at a concentration of 2 mM, in the course of inducing differentiation into a chondrogenic pellet according to the step iv). Experimental groups were divided into two groups, that is, the experimental group (before aggregation) in which differentiation into chondrocytes had been induced by performing treatment with chromeceptin from the beginning of formation of a chondrogenic pellet, and the experimental group (after aggregation) in which differentiation into chondrocytes had been induced by performing treatment with chromeceptin from 7 days after induction of formation of a chondrogenic pellet. The differentiated chondrogenic pellets were respectively obtained therefrom. Then, mRNA was extracted from each of the obtained chondrogenic pellets, and the expression levels of COL2A1, SOX9, COL1A1 and COL10A1 were checked.

heavy OG cells [2] = assay: Proliferation of heavy OG cells cultured in IGF2 inhibitor-treated medium
Protocol: First, among the OG cells obtained in the step iii) of [Example 12], the heavy cells were cultured for 3 days while treating the medium with chromeceptin at a concentration of 2 nM to 2 μM, in the course of inducing differentiation into a chondrogenic pellet according to the step iv). Then, morphology of the cells was observed over the treatment time, and the number of the proliferated cells was counted.

heavy OG cells [3] = assay: Chondrogenic differentiation markers of heavy OG cells cultured in IGF2 inhibitor-treated medium
Excerpt: Accordingly, heavy OG cells were induced to differentiate into a chondrogenic pellet while performing treatment with chromeceptin under the conditions of Example <16-1>, during which the OG cells were obtained, and mRNA was extracted therefrom and used to synthesize cDNA. Using the synthesized cDNA as a template, expression levels of SOX9, COL2A1, COL10A1, and IGF2 were quantitatively analyzed.

SMILES: CN(C)c1ccc2c(c1)OC(N)=C(C#N)C2c1cccc(C(F)(F)F)c1 (stereo not drawn) [chromeceptin]
- expression level of SOX9 in chondrogenic pellet (heavy OG cells [1]): significantly increased
- decrease of the number of OG cells (heavy OG cells [2]; 2 μM chromeceptin, after 72 hours, compared with untreated control): ≥ 3 times
- degree of proliferation of the cells (heavy OG cells [2]; chromeceptin 2 nM to 2 μM, 3 days): decreases with increased treatment concentration
- expression level of SOX9 (heavy OG cells [3]; 2 μM chromeceptin, compared with untreated control (Normal Ctrl)): remarkably increases
- expression level of IGF2 in the OG cells (heavy OG cells [3]; chromeceptin 2 nM to 2 μM): decreases with increased treatment concentration
- expression level of SOX9 (heavy OG cells [3]; chromeceptin 2 nM to 2 μM): significantly increases with increased treatment concentration
